Drawing on patent publication US20240150303A1, “DIAMINOTRIAZINE COMPOUNDS” (BASF SE, priority 2021, published 2024), this text covers herbicidal activity for 14 molecules.

Test in all cases: greenhouse pre-emergence herbicidal test
Common to all, as to type: in vivo

Assay [1] deals with Alopercurus myosuroides. The procedure, abridged: (§1)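 Aqueous suspensions or emulsions sprayed immediately after sowing onto loamy sand (~3.0% humus), pots then hooded until rooting. Plants kept at 10–25 °C or 20–35 °C depending on species for 2–4 weeks. Damage scored 0 (none) to 100 (no emergence or complete destruction of aerial parts).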
For assay [2], the system named is Apera spica-venti. The procedure, abridged: as §1
Assay [3] concerns Abutilon theophrasti. In a few lines: as §1
Assay [4] deals with Setaria faberi. The procedure, abridged: (§2)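 Seeds sown per species; compounds suspended or emulsified in water and sprayed directly after sowing, pots irrigated and covered with transparent hoods until rooting. Evaluated over 2 to 4 weeks on a 0–100 scale (100 = no emergence or complete destruction of aerial parts, 0 = normal growth).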
Assay [5] has as its system Amaranthus retroflexus. The procedure, abridged:
as §2

Assay [6] relates to Echinocloa crus-galli. In a few lines:
as §2

The subject of assay [7] is Lolium multiflorum. In a few lines:
as §1

SMILES strings stand for the structures.

In the case of `CCOc1c(Br)cc(F)c(Cl)c1Nc1nc(N)nc(C(C)(C)F)n1` [Example 30], the herbicidal activity was 100% in assay [1] (31 g/ha); 85% in assay [2] (31 g/ha); 100% in assay [3] (31 g/ha); 100% in assay [4] (31 g/ha); 85% in assay [5] (31 g/ha).

Regarding `CCOc1c(F)cc(F)c(Cl)c1Nc1nc(N)nc(C(C)(C)F)n1` [Example 24], the herbicidal activity in assay [2] (31 g/ha), in assay [4] (62.5 g/ha), in assay [6] (62.5 g/ha), in assay [5] (31 g/ha) and in assay [5] (62.5 g/ha) was 100% each time.

`COc1c(Cl)cc(Cl)c(C)c1Nc1nc(N)nc(C(C)(F)CCl)n1` (racemic) [Example 104]: the values for the herbicidal activity in assay [1] (62.5 g/ha), in assay [7] (62.5 g/ha) and in assay [4] (62.5 g/ha) were 90%, 100% and 85%, respectively.

`COc1c(Cl)cc(Cl)c(C)c1Nc1nc(N)nc(C(C)F)n1` (centres unmarked) [Example 35]: the herbicidal activity was 100% in assay [2] (125 g/ha); 100% in assay [3] (62.5 g/ha); 95% in assay [3] (125 g/ha); 100% in assay [6] (62.5 g/ha); 100% in assay [5] (62.5 g/ha); 100% in assay [5] (125 g/ha).

`COc1c(Cl)cc(Cl)c(C)c1Nc1nc(N)nc(C2(F)CCCC2)n1` [Example 36]: the herbicidal activity is 100% in assay [2] (125 g/ha); 100% in assay [3] (62.5 g/ha); 90% in assay [4] (125 g/ha); 100% in assay [6] (62.5 g/ha); 85% in assay [6] (125 g/ha); 100% in assay [5] (62.5 g/ha).

Take `COc1c(Cl)cc(Br)c(C)c1Nc1nc(N)nc(C(C)(C)F)n1` [Example 60]: the herbicidal activity in assay [2] (31 g/ha) was determined as 95%; in assay [3] (62 g/ha) it was 100%; in assay [4] (31 g/ha), 98%; in assay [4] (62 g/ha) it was 100%; in assay [5] (31 g/ha) it was 100%; in assay [5] (62 g/ha), 100%.

As for `COc1c(Cl)cc(C)c(C)c1Nc1nc(N)nc(C(C)(C)F)n1` [Example 15], the herbicidal activity was 95% in assay [1] (31 g/ha); 100% in assay [1] (125 g/ha); 95% in assay [7] (31 g/ha); 90% in assay [4] (31 g/ha); 100% in assay [4] (125 g/ha); 100% in assay [6] (125 g/ha).

For `CC(C)(F)c1nc(N)nc(Nc2c(Cl)ccc(F)c2OCC#CC2CC2)n1` [Example 52], the herbicidal activity in assay [2] (62.5 g/ha), in assay [3] (62 g/ha), in assay [4] (62.5 g/ha), in assay [6] (62 g/ha), in assay [6] (62.5 g/ha) and in assay [5] (62 g/ha) was 100% throughout.

`C#CCOc1c(Cl)cc(C)c(Cl)c1Nc1nc(N)nc(C(C)(C)F)n1` [Example 64]: the herbicidal activity came to 100% in assay [3] (62 g/ha), 98% in assay [7] (62 g/ha), 100% in assay [4] (62 g/ha) and 100% in assay [6] (62 g/ha).

Regarding `COc1c(Cl)cc(Cl)c(C)c1Nc1nc(N)nc(C(C)(C)OC)n1` [Example 37], the herbicidal activity is 100% in assay [2] (125 g/ha); 98% in assay [3] (62.5 g/ha); 85% in assay [3] (125 g/ha); 85% in assay [4] (125 g/ha); 100% in assay [6] (62.5 g/ha); 100% in assay [5] (62.5 g/ha).

Take `CCC(C)(F)c1nc(N)nc(Nc2c(C)c(Cl)cc(Cl)c2OC)n1` (racemic) [Example 102]: the herbicidal activity in assay [1] (62.5 g/ha) came out at 85%; in assay [7] (62.5 g/ha), 90%; in assay [4] (62.5 g/ha), 80%.

Consider `C#CCOc1c(Br)cc(F)c(Cl)c1Nc1nc(N)nc(C(C)(C)F)n1` [Example 31], for which the herbicidal activity in assay [2] (31 g/ha), in assay [3] (31 g/ha), in assay [3] (250 g/ha), in assay [4] (31 g/ha), in assay [6] (250 g/ha) and in assay [5] (250 g/ha) was 100% throughout.

Take `COc1c(Br)cc(C)c(C)c1Nc1nc(N)nc(C(C)F)n1` (centres unmarked) [Example 46]: the herbicidal activity in assay [7] (62 g/ha) is reported as 80%; in assay [4] (62 g/ha) it was 100%; in assay [4] (62.5 g/ha) it was 100%; in assay [6] (62.5 g/ha), 100%; in assay [5] (62 g/ha), 100%; in assay [5] (62.5 g/ha) it was 100%.

Turning to `COc1c(Br)cc(C)c(C)c1Nc1nc(N)nc(C(C)(C)F)n1` [Example 45], the herbicidal activity in assay [3] (62 g/ha), in assay [7] (62 g/ha), in assay [4] (62 g/ha), in assay [4] (62.5 g/ha), in assay [6] (62.5 g/ha) and in assay [5] (62.5 g/ha) was 100% throughout.
